Experimental data from the supplement of paper PMC10307832.

What was measured:
Assay in all cases: relative viability (nuclei count vs DMSO), 5 days (fraction); higher = more cells survive
Bortezomib + Dasatinib = compound: CC(C)C[C@H](NC(=O)[C@H](Cc1ccccc1)NC(=O)c1cnccn1)B(O)O [Bortezomib] + Cc1nc(Nc2ncc(C(=O)Nc3c(C)cccc3Cl)s2)cc(N2CCN(CCO)CC2)n1 [Dasatinib] (partner 0.075 µM)
In short: (§1)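 Nuclei were stained with Hoechst during a one-step fixation (final 0.05% Triton X-100, 1% formaldehyde, 1 ug/ml Hoechst) carried out 5 days after dosing, then counted on 4× images. The cells, lung cancer lines in 1536-well plates, had been dosed by pin tool the day after seeding with one drug alone or a fixed anchor-drug dose plus five library-drug doses (not always all listed) in √10 steps. Relative viability is the nuclei count in treated wells divided by that in vehicle wells, and each value is the median of duplicate plates.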

[1] = compound: CC1=CC(=NN1)NC2=CC(=NC(=N2)/C=C/C3=CC=CC=C3)N4CCN(CC4)C + CS(=O)(=O)N1CCN(Cc2cc3nc(-c4cccc5[nH]ncc45)nc(N4CCOCC4)c3s2)CC1 [Pictilisib] (partner 1 µM)
In short: as §1

[2] = compound: CC1=CC(=NN1)NC2=CC(=NC(=N2)/C=C/C3=CC=CC=C3)N4CCN(CC4)C + Nc1ncn([C@H]2C[C@H](O)[C@@H](CO)O2)c(=O)n1 [Decitabine] (partner 2 µM)
In short: as §1

Obatoclax + Olaparib = compound: COC1=CC(c2cc3ccccc3[nH]2)=N/C1=C\c1[nH]c(C)cc1C [Obatoclax] + O=C(c1cc(Cc2n[nH]c(=O)c3ccccc23)ccc1F)N1CCN(C(=O)C2CC2)CC1 [Olaparib] (partner 8 µM)
In short: as §1

H3255
relative viability (Bortezomib + Dasatinib; first compound 0.0002 µM): 0.332 | relative viability (Bortezomib + Dasatinib; first compound 0.000632 µM): 0.271 | relative viability (Bortezomib + Dasatinib; first compound 0.002 µM): 0.299 | relative viability (Bortezomib + Dasatinib; first compound 0.006325 µM): 0.37 | relative viability (Bortezomib + Dasatinib; first compound 0.02 µM): 0.28 | relative viability ([1]; first compound 0.08 µM): 0.507 | relative viability ([1]; first compound 0.253 µM): 0.534 | relative viability ([1]; first compound 0.8 µM): 0.497 | relative viability ([1]; first compound 2.53 µM): 0.396 | relative viability ([1]; first compound 8 µM): 0.205 | relative viability ([2]; first compound 0.08 µM): 0.52 | relative viability ([2]; first compound 0.253 µM): 0.54 | relative viability ([2]; first compound 0.8 µM): 0.496 | relative viability ([2]; first compound 2.53 µM): 0.499 | relative viability ([2]; first compound 8 µM): 0.249 | relative viability (Obatoclax + Olaparib; first compound 0.01 µM): 0.537 | relative viability (Obatoclax + Olaparib; first compound 0.03162 µM): 0.608 | relative viability (Obatoclax + Olaparib; first compound 0.1 µM): 0.541 | relative viability (Obatoclax + Olaparib; first compound 0.3162 µM): 0.557 | relative viability (Obatoclax + Olaparib; first compound 1 µM): 0.546

HARA
relative viability (Bortezomib + Dasatinib; first compound 0.0002 µM): 0.206 | relative viability (Bortezomib + Dasatinib; first compound 0.000632 µM): 0.239 | relative viability (Bortezomib + Dasatinib; first compound 0.002 µM): 0.259 | relative viability (Bortezomib + Dasatinib; first compound 0.006325 µM): 0.105 | relative viability (Bortezomib + Dasatinib; first compound 0.02 µM): 0.0621 | relative viability ([1]; first compound 0.08 µM): 0.396 | relative viability ([1]; first compound 0.253 µM): 0.37 | relative viability ([1]; first compound 0.8 µM): 0.348 | relative viability ([1]; first compound 2.53 µM): 0.204 | relative viability ([1]; first compound 8 µM): 0.0756 | relative viability ([2]; first compound 0.08 µM): 0.529 | relative viability ([2]; first compound 0.253 µM): 0.641 | relative viability ([2]; first compound 0.8 µM): 0.569 | relative viability ([2]; first compound 2.53 µM): 0.192 | relative viability ([2]; first compound 8 µM): 0.132 | relative viability (Obatoclax + Olaparib; first compound 0.01 µM): 0.639 | relative viability (Obatoclax + Olaparib; first compound 0.03162 µM): 0.962 | relative viability (Obatoclax + Olaparib; first compound 0.1 µM): 1.03 | relative viability (Obatoclax + Olaparib; first compound 0.3162 µM): 0.99 | relative viability (Obatoclax + Olaparib; first compound 1 µM): 0.89

HCC-15
relative viability (Bortezomib + Dasatinib; first compound 0.0002 µM): 0.514 | relative viability (Bortezomib + Dasatinib; first compound 0.000632 µM): 0.629 | relative viability (Bortezomib + Dasatinib; first compound 0.002 µM): 0.649 | relative viability (Bortezomib + Dasatinib; first compound 0.006325 µM): 0.0786 | relative viability (Bortezomib + Dasatinib; first compound 0.02 µM): 0.0817 | relative viability ([1]; first compound 0.08 µM): 0.739 | relative viability ([1]; first compound 0.253 µM): 0.548 | relative viability ([1]; first compound 0.8 µM): 0.667 | relative viability ([1]; first compound 2.53 µM): 0.299 | relative viability ([1]; first compound 8 µM): 0.104 | relative viability ([2]; first compound 0.08 µM): 0.592 | relative viability ([2]; first compound 0.253 µM): 0.654 | relative viability ([2]; first compound 0.8 µM): 0.655 | relative viability ([2]; first compound 2.53 µM): 0.108 | relative viability ([2]; first compound 8 µM): 0.0983 | relative viability (Obatoclax + Olaparib; first compound 0.01 µM): 0.734 | relative viability (Obatoclax + Olaparib; first compound 0.03162 µM): 0.769 | relative viability (Obatoclax + Olaparib; first compound 0.1 µM): 0.694 | relative viability (Obatoclax + Olaparib; first compound 0.3162 µM): 0.763 | relative viability (Obatoclax + Olaparib; first compound 1 µM): 0.704

HCC-44
relative viability ([1]; first compound 0.08 µM): 0.606 | relative viability ([1]; first compound 0.253 µM): 0.627 | relative viability ([1]; first compound 0.8 µM): 0.447 | relative viability ([1]; first compound 2.53 µM): 0.34 | relative viability ([1]; first compound 8 µM): 0.245 | relative viability ([2]; first compound 0.08 µM): 0.967 | relative viability ([2]; first compound 0.253 µM): 0.965 | relative viability ([2]; first compound 0.8 µM): 0.909 | relative viability ([2]; first compound 2.53 µM): 0.87 | relative viability ([2]; first compound 8 µM): 0.845 | relative viability (Obatoclax + Olaparib; first compound 0.01 µM): 0.965 | relative viability (Obatoclax + Olaparib; first compound 0.03162 µM): 0.988 | relative viability (Obatoclax + Olaparib; first compound 0.1 µM): 0.966 | relative viability (Obatoclax + Olaparib; first compound 0.3162 µM): 0.969 | relative viability (Obatoclax + Olaparib; first compound 1 µM): 0.94
